Measurements taken from patent publication US20210087217A1, “NUCLEOTIDE HEMI-SULFATE SALT FOR THE TREATMENT OF HEPATITIS C VIRUS” (Atea Pharmaceuticals, Inc., priority 2017, published 2021).
Entries after “also recorded” stand apart in the source; their conditions may differ. Counter-ions that a name gives are not always drawn.

Experiments:
[1] = Plasma levels of metabolites following single oral doses of Compound 2, dogs; type: in vivo, dog; settings: for AUC(0-t) / Cmax / Tmax: dog, plasma, po
[2] = Accelerated stability (40 ± 2° C./75 ± 5% RH) of Compound 2; type: physicochemical
Protocol: (§1) Three conditions were tested: accelerated stability (40 2° C./75±5% RH) over a 6-month time period, ambient stability (25±2° C./60±5% RH) over a 9-month period, and stability under refrigerator conditions (5 3° C.) over a 9-month time period. The results for accelerated stability, ambient stability, and refrigerator conditions are shown in Table 23, Table 24, and Table 25, respectively.
After six months, the total related substance 1 impurities was only 0.08% and there was no detection of related substance 2 and isomers.

[3] = Chemical stability of Compound 2 at 25 and 40° C. over 6 months; type: physicochemical
Protocol: The container closure system for the study was a combination medicinal valve bag with a pharmaceutical laminated film over the pouch and desiccant silica gel between the two layers. […] Bags were then stored at 25° C./60% RH (relative humidity) and 40° C./75% RH (relative humidity). Organic purity, water content, ^1HNMR, DSC and Raman were measured at Time 0, Month 1, Month 2, Month 3 and Month 6.
The sample was dissolved in acetonitrile-water (90:10) (v/v). The gradient method is shown below.
At 25° C., the percent of degradation product increased from 0.03% at Day 0 to 0.08% after 6 months. At 40° C., the percent of degradation product increased from 0.03% to 0.39%. Over the course of 6 months, the percent of water increased approximately 0.6% at 25° C. and increased approximately 0.7% at 40° C.

[4] = Heart and liver tissue levels of active triphosphate 4 hours after oral Compound 2, monkeys; type: in vivo, monkey; settings: 4 hours after oral dose of Compound 2
Protocol: High levels of the active TP were measured in the liver of all species tested.

[5] = Ambient stability (25 ± 2° C./60 ± 5% RH) of Compound 2; type: physicochemical
Protocol: as §1
After 9 months, the percentage of water in the sample was only 0.20% and the total related substance 1 impurities was only 0.02%.

[6] = 25° C./60% RH, over nine months
[7] = 25 ± 2° C./60 ± 5% RH, 1st month
[8] = 25 ± 2° C./60 ± 5% RH, 3rd month
[9] = 25 ± 2° C./60 ± 5% RH, 6th month
[10] = 25 ± 2° C./60 ± 5% RH, 9th month

CNc1nc(N)nc2c1ncn2[C@@H]1O[C@H](CO[P@@](=O)(N[C@@H](C)C(=O)OC(C)C)Oc2ccccc2)[C@@H](O)[C@@]1(C)F [Compound 2, hemi-sulfate salt of isopropyl((S)-(((2R,3R,4R,5R)-5-(2-amino-6-(methylamino)-9H-purin-9-yl)-4-fluoro-3-hydroxy-4-methyltetrahydrofuran-2-yl)methoxy)(phenoxy)phosphoryl)-L-alaninate]
AUC(0-t) ([1]; 30 mg/kg): 1300 ng·h/mL
AUC(0-t) ([1]; 100 mg/kg): 10200 ng·h/mL
Cmax ([1]; 100 mg/kg): 8120 ng/mL
Tmax ([1]; 100 mg/kg): 0.5 to 1 h
AUC(0-t) ([1]; 300 mg/kg): 44300 ng·h/mL
Cmax ([1]; 300 mg/kg): 21300 ng/mL
Tmax ([1]; 300 mg/kg): 204 h
Vomiting (animals affected) ([1]; dogs, high dose group): 5/5
Dose proportionality of Compound 1 exposures ([1]; dogs, single oral doses of Compound 2): supra-proportional
Appearance ([2]; 40° C./75% RH, 0 month): White
Assay ([2]; 40° C./75% RH, 0 month): 98.8%
IR ([2]; 40° C./75% RH, 0 month): correspond
Related Substance 1: Any other single impurity ([2]; 40° C./75% RH, 0 month): 0.01%
Related Substance 1: Total Impurities ([2]; 40° C./75% RH, 0 month): 0.01%
Water ([2]; 40° C./75% RH, 0 month): 0.45%
Appearance ([2]; 40° C./75% RH, 1st month): White
Assay ([2]; 40° C./75% RH, 1st month): 101.5%
Related Substance 1: Any other single impurity ([2]; 40° C./75% RH, 1st month): 0.02%
Related Substance 1: Total Impurities ([2]; 40° C./75% RH, 1st month): 0.02%
Water ([2]; 40° C./75% RH, 1st month): 0.21%
Appearance ([2]; 40° C./75% RH, 3rd month): White
Assay ([2]; 40° C./75% RH, 3rd month): 99.6%
IR ([2]; 40° C./75% RH, 3rd month): correspond
Related Substance 1: Any other single impurity ([2]; 40° C./75% RH, 3rd month): 0.01%
Related Substance 1: Total Impurities ([2]; 40° C./75% RH, 3rd month): 0.02%
Water ([2]; 40° C./75% RH, 3rd month): 0.36%
Appearance ([2]; 40° C./75% RH, 6th month): White
Assay ([2]; 40° C./75% RH, 6th month): 99.5%
IR ([2]; 40° C./75% RH, 6th month): correspond
Related Substance 1: Any other single impurity ([2]; 40° C./75% RH, 6th month): 0.05%
Related Substance 1: Impurity F ([2]; 40° C./75% RH, 6th month): 0.01%
Related Substance 1: Total Impurities ([2]; 40° C./75% RH, 6th month): 0.08%
Water ([2]; 40° C./75% RH, 6th month): 0.41%
Stability ([2]; accelerated stability conditions (40° C./75% RH), 6 months): remains a white solid
Increase of the percent of water over 6 months ([3]; 25° C.): approximately 0.6%
Maximum Impurity Percent ([3]; 25° C./60% RH, Day 0): 0.12%
Percent Purity ([3]; 25° C./60% RH, Day 0): 99.82%
Percent Water ([3]; 25° C./60% RH, Day 0): 1.2%
1HNMR compared with Day 0 ([3]; 25° C./60% RH, Month 1): The same as
DSC compared with Day 0 ([3]; 25° C./60% RH, Month 1): The same as
Maximum Impurity Percent ([3]; 25° C./60% RH, Month 1): 0.12%
Percent Purity ([3]; 25° C./60% RH, Month 1): 99.77%
Percent Water ([3]; 25° C./60% RH, Month 1): 1.9%
Raman compared with Day 0 ([3]; 25° C./60% RH, Month 1): The same as
1HNMR compared with Day 0 ([3]; 25° C./60% RH, Month 2): The same as
DSC compared with Day 0 ([3]; 25° C./60% RH, Month 2): The same as
Maximum Impurity Percent ([3]; 25° C./60% RH, Month 2): 0.12%
Percent Purity ([3]; 25° C./60% RH, Month 2): 99.75%
Percent Water ([3]; 25° C./60% RH, Month 2): 1.8%
Raman compared with Day 0 ([3]; 25° C./60% RH, Month 2): The same as
1HNMR compared with Day 0 ([3]; 25° C./60% RH, Month 3): The same as
DSC compared with Day 0 ([3]; 25° C./60% RH, Month 3): The same as
Maximum Impurity Percent ([3]; 25° C./60% RH, Month 3): 0.12%
Percent Purity ([3]; 25° C./60% RH, Month 3): 99.75%
Percent Water ([3]; 25° C./60% RH, Month 3): 1.8%
Raman compared with Day 0 ([3]; 25° C./60% RH, Month 3): The same as
1HNMR compared with Day 0 ([3]; 25° C./60% RH, Month 6): The same as
DSC compared with Day 0 ([3]; 25° C./60% RH, Month 6): The same as
Maximum Impurity Percent ([3]; 25° C./60% RH, Month 6): 0.13%
Percent Purity ([3]; 25° C./60% RH, Month 6): 99.74%
Percent Water ([3]; 25° C./60% RH, Month 6): 1.8%
Raman compared with Day 0 ([3]; 25° C./60% RH, Month 6): The same as
Increase of the percent of water over 6 months ([3]; 40° C.): approximately 0.7%
Maximum Impurity Percent ([3]; 40° C./75% RH, Day 0): 0.12%
Percent Purity ([3]; 40° C./75% RH, Day 0): 99.82%
Percent Water ([3]; 40° C./75% RH, Day 0): 1.2%
1HNMR compared with Day 0 ([3]; 40° C./75% RH, Month 1): The same as
DSC compared with Day 0 ([3]; 40° C./75% RH, Month 1): The same as
Maximum Impurity Percent ([3]; 40° C./75% RH, Month 1): 0.12%
Percent Purity ([3]; 40° C./75% RH, Month 1): 99.71%
Percent Water ([3]; 40° C./75% RH, Month 1): 2.0%
Raman compared with Day 0 ([3]; 40° C./75% RH, Month 1): The same as
1HNMR compared with Day 0 ([3]; 40° C./75% RH, Month 2): The same as
DSC compared with Day 0 ([3]; 40° C./75% RH, Month 2): The same as
Maximum Impurity Percent ([3]; 40° C./75% RH, Month 2): 0.12%
Percent Purity ([3]; 40° C./75% RH, Month 2): 99.63%
Percent Water ([3]; 40° C./75% RH, Month 2): 1.9%
Raman compared with Day 0 ([3]; 40° C./75% RH, Month 2): The same as
1HNMR compared with Day 0 ([3]; 40° C./75% RH, Month 3): The same as
DSC compared with Day 0 ([3]; 40° C./75% RH, Month 3): The same as
Maximum Impurity Percent ([3]; 40° C./75% RH, Month 3): 0.12%
Percent Purity ([3]; 40° C./75% RH, Month 3): 99.58%
Percent Water ([3]; 40° C./75% RH, Month 3): 1.9%
Raman compared with Day 0 ([3]; 40° C./75% RH, Month 3): The same as
1HNMR compared with Day 0 ([3]; 40° C./75% RH, Month 6): The same as
DSC compared with Day 0 ([3]; 40° C./75% RH, Month 6): The same as
Maximum Impurity Percent ([3]; 40° C./75% RH, Month 6): 0.14%
Percent Purity ([3]; 40° C./75% RH, Month 6): 99.30%
Percent Water ([3]; 40° C./75% RH, Month 6): 1.9%
Raman compared with Day 0 ([3]; 40° C./75% RH, Month 6): The same as
Rate of degradation ([3]; stored for 6 months at 25 and 40° C.): minimal
Active TP (metabolite 1-6) level in heart [4]: unquantifiable levels
Active TP (metabolite 1-6) level in liver [4]: High levels
Percentage of water ([5]; 25° C./60% RH, after 9 months): 0.20%
Total related substance 1 impurities ([5]; 25° C./60% RH, after 9 months): 0.02%
Related substance 2 and any isomers ([5]; 25° C./60% RH, nine months): not detected
Appearance [5, 6]: white solid
IR [5, 6]: corresponded with the reference sample
Appearance ([5]; 25 ± 2° C./60 ± 5% RH, 0 month): White
Assay ([5]; 25 ± 2° C./60 ± 5% RH, 0 month): 98.8%
IR ([5]; 25 ± 2° C./60 ± 5% RH, 0 month): correspond
Related Substance 1 Any other single impurity ([5]; 25 ± 2° C./60 ± 5% RH, 0 month): 0.01%
Related Substance 1 Total Impurities ([5]; 25 ± 2° C./60 ± 5% RH, 0 month): 0.01%
Water ([5]; 25 ± 2° C./60 ± 5% RH, 0 month): 0.45%
Appearance [5, 7]: White
Assay [5, 7]: 101.1%
Related Substance 1 Any other single impurity [5, 7]: 0.01%
Related Substance 1 Total Impurities [5, 7]: 0.02%
Water [5, 7]: 0.19%
Appearance [5, 8]: White
Assay [5, 8]: 99.6%
IR [5, 8]: correspond
Related Substance 1 Any other single impurity [5, 8]: 0.03%
Related Substance 1 Impurity B [5, 8]: 0.03%
Related Substance 1 Impurity F [5, 8]: 0.02%
Related Substance 1 Total Impurities [5, 8]: 0.11%
Water [5, 8]: 0.29%
Appearance [5, 9]: White solid
Assay [5, 9]: 99.7%
IR [5, 9]: correspond
Related Substance 1 Any other single impurity [5, 9]: 0.02%
Related Substance 1 Impurity F [5, 9]: 0.01%
Related Substance 1 Total Impurities [5, 9]: 0.05%
Water [5, 9]: 0.46%
Appearance [5, 10]: Off-white
Assay [5, 10]: 100.9%
IR [5, 10]: correspond
Related Substance 1 Any other single impurity [5, 10]: 0.02%
Related Substance 1 Total Impurities [5, 10]: 0.02%
Water [5, 10]: 0.20%
Stability ([5]; ambient conditions (25° C./60% RH), 9 months): very stable; also recorded: stable
